Assays:
Plasmepsin I = Plasmepsin I (Plasmodium falciparum, UniProt P39898); experiment: Inhibition of Plasmodium falciparum plasmepsin 1 preincubated for 30 mins followed by DABCYL-Glu-Arg-Nle-Phe-Leu-Ser-Phe-Pro-EDANS substrate addition by FRET assay
Plasmepsin II = Plasmepsin II (Plasmodium falciparum, UniProt P46925); experiment: Inhibition of Plasmodium falciparum plasmepsin 2 preincubated for 30 mins followed by DABCYL-Glu-Arg-Nle-Phe-Leu-Ser-Phe-Pro-EDANS substrate addition by FRET assay
Cathepsin D = Cathepsin D (Homo sapiens, UniProt P07339); experiment: Inhibition of CatD (unknown origin) preincubated for 30 mins followed by DABCYL-Glu-Arg-Nle-Phe-Leu-Ser-Phe-Pro-EDANS substrate addition by FRET assay
[1] = Inhibition of Plasmodium falciparum plasmepsin 4 preincubated for 30 mins followed by DABCYL-Glu-Arg-Nle-Phe-Leu-Ser-Phe-Pro-EDANS substrate addition by FRET assay
Plasmodium falciparum = experiment: Antimalarial activity against Plasmodium falciparum 3D7 after 96 hrs by SYBR Green 1 assay; format: functional, organism-based; conditions: 3D7, 96 h

Plasmepsin I, sequence (P39898 whole entry): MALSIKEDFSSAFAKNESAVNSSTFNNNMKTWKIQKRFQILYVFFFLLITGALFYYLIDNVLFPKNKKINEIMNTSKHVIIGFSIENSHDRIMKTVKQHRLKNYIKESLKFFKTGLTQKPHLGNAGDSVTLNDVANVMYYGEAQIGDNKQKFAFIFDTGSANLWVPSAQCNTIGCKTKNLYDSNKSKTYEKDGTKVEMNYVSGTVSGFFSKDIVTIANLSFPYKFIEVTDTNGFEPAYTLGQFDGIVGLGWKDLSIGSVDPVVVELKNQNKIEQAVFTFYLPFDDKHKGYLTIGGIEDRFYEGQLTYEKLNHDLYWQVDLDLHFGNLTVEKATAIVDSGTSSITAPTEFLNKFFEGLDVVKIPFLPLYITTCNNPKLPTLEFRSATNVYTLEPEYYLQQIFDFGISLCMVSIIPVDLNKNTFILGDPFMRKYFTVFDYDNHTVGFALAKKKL
Plasmepsin II, sequence (P46925 whole entry): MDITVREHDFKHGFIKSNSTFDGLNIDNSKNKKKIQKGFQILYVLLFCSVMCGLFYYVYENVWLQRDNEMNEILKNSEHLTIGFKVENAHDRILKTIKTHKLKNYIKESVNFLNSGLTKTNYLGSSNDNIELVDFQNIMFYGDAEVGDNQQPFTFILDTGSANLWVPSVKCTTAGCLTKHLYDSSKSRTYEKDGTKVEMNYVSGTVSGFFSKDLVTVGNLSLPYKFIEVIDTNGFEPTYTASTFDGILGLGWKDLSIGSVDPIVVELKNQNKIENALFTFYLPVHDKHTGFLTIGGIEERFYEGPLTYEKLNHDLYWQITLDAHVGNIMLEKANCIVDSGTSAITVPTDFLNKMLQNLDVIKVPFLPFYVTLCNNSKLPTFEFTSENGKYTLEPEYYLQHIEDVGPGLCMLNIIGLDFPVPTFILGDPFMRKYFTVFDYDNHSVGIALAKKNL
Cathepsin D, sequence (P07339 65-162 limits assumed): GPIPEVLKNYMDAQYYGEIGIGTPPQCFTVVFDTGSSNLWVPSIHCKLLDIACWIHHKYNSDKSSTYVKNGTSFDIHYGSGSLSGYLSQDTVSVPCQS
Cathepsin D, sequence (P07339 169-412 limits assumed): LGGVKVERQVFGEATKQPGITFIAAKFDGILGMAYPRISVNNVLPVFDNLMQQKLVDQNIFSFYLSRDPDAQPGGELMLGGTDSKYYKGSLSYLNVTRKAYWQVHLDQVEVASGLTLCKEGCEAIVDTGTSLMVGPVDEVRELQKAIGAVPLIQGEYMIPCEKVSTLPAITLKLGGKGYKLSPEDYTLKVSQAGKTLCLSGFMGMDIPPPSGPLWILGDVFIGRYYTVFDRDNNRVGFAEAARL

Compound | IC50 (Plasmepsin I) | IC50 (Plasmepsin II) | IC50 (Cathepsin D) | IC50 [1] | EC50 (Plasmodium falciparum)
CCCCc1cccc(-c2ccc3c(=O)n(C[C@@H]4CC[C@H](c5ccccc5)O4)c(N)nc3c2)c1 (racemic) | 0.8 µM | 2 µM | 3 µM | 1 µM | 
Nc1nc2cc(-c3ccc(CCCCc4ccccc4)cc3)ccc2c(=O)n1C[C@@H]1CC[C@H](c2ccccc2)O1 (racemic) | 6.5 µM | 32 µM | 91 µM | 0.4 µM | 3.9 µM
Nc1nc2cc(-c3ccccc3)ccc2c(=O)n1C[C@@H]1CCCO1 (racemic) | 6 µM | 2.3 µM | 53.4 µM | 1.3 µM | 
CCCCCc1ccc(-c2ccc3c(=O)n(C[C@@H]4CC[C@H](c5ccccc5)O4)c(N)nc3c2)cc1 (racemic) | 0.3 µM | 0.15 µM | 5 µM | 0.1 µM | 1.1 µM
CCCCc1ccc(-c2ccc3c(=O)n(C[C@@H]4CC[C@H](c5ccccc5)O4)c(N)nc3c2)cc1 (racemic) | 0.3 µM | 0.23 µM | 2.2 µM | 0.2 µM | 0.9 µM
Nc1nc2cc(-c3ccc(CCCc4ccccc4)cc3)ccc2c(=O)n1C[C@@H]1CC[C@H](c2ccccc2)O1 (racemic) | 3.2 µM | 10 µM | 6 µM | 0.13 µM | 1.2 µM
Nc1nc2cc(-c3ccc(CCC4CC4)cc3)ccc2c(=O)n1C[C@@H]1CC[C@H](c2ccccc2)O1 (racemic) | 0.48 µM | 0.4 µM | 3.2 µM | 0.3 µM | 
Nc1nc2cc(-c3ccc(C4CCCCC4)cc3)ccc2c(=O)n1C[C@@H]1CC[C@H](c2ccccc2)O1 (racemic) | 0.5 µM | 2.4 µM | 8.6 µM | 0.8 µM | 
Nc1nc2cc(-c3ccc(CCCCCc4ccccc4)cc3)ccc2c(=O)n1C[C@@H]1CC[C@H](c2ccccc2)O1 (racemic) | 36 µM | 12 µM | 52 µM | 2 µM | 
CC(C)CCc1ccc(-c2ccc3c(=O)n(C[C@@H]4CC[C@H](c5ccccc5)O4)c(N)nc3c2)cc1 (racemic) | 1.4 µM | 0.6 µM | > 100 µM | 0.4 µM | 
Nc1nc2cc(-c3ccccc3)ccc2c(=O)n1CC1CCC2(CCCCC2)O1 (racemic) | 2 µM | 5.3 µM | 9 µM | 3 µM | 
Nc1nc2cc(-c3ccc(CCC4CCCCC4)cc3)ccc2c(=O)n1C[C@@H]1CC[C@H](c2ccccc2)O1 (racemic) | 9.4 µM | 10.7 µM | 100 µM | 1.2 µM | 
COC(=O)CCc1ccc(-c2ccc3c(=O)n(C[C@@H]4CC[C@H](c5ccccc5)O4)c(N)nc3c2)cc1 (racemic) | 0.27 µM | 2.6 µM | 1.4 µM | 0.4 µM | 
CC(C)[C@H]1CC[C@@H](Cn2c(N)nc3cc(-c4ccccc4)ccc3c2=O)O1 (racemic) | 2.3 µM | 1.6 µM | 25 µM | 1.5 µM | 

The remaining lines, values ahead:

IC50 (Plasmepsin I) | IC50 (Plasmepsin II) | IC50 (Cathepsin D) | IC50 [1] | EC50 (Plasmodium falciparum) | Compound
3.7 µM | 2.5 µM | 19.5 µM | 1.3 µM |  | Nc1nc2cc(-c3ccccc3)ccc2c(=O)n1C[C@@H]1CC[C@H](c2ccc3ccccc3c2)O1 (racemic)
1.3 µM | 0.57 µM | 13.8 µM | 0.6 µM |  | Nc1nc2cc(-c3ccccc3)ccc2c(=O)n1C[C@@H]1CC[C@H](c2ccccc2)O1 (racemic)
52 µM | 12.5 µM | > 200 µM | 20 µM |  | Nc1nc2cc(-c3ccccc3)ccc2c(=O)n1CC1CC(c2ccccc2)CO1 (mixture of isomers)
2.4 µM | 2.9 µM | 9 µM | 1.1 µM |  | Nc1nc2cc(-c3ccccc3)ccc2c(=O)n1C[C@@H]1CC[C@@H](c2ccccc2)O1 (racemic)
1.2 µM | 0.34 µM | 4.6 µM | 0.5 µM |  | Nc1nc2cc(-c3ccccc3)ccc2c(=O)n1C[C@H]1CC[C@@H](c2ccccc2)O1
2 µM | 2 µM | 220 µM | 0.7 µM |  | Nc1nc2cc(-c3ccc(CCc4ccccc4)cc3)ccc2c(=O)n1C[C@@H]1CC[C@H](c2ccccc2)O1 (racemic)
4.6 µM | 3 µM | 22 µM | 2.7 µM |  | Nc1nc2cc(-c3ccccc3)ccc2c(=O)n1C[C@@H]1CC[C@H](c2ccccc2)O1

Reference: ChEMBL document CHEMBL3763050, “Fragment-Based Discovery of 2-Aminoquinazolin-4(3H)-ones As Novel Class Nonpeptidomimetic Inhibitors of the Plasmepsins I, II, and IV” (J Med Chem, 2016)
